Measured values published in US20170198006A1, “PRMT5 INHIBITORS AND USES THEREOF” (Epizyme, Inc., priority 2014, published 2017).
pEC50, pIC50: −log10 of the molar value.

Tests used:
[1] = target: T1, PRMT5/MEP50 (Homo sapiens, UniProt O14744); experiment: PRMT5 Biochemical Assay (PRMT5/MEP50 enzyme assay on histone H4 peptide substrate, 3H-SAM Flashplate); conditions: PRMT5 biochemical assay; read-out: Biochemical IC50
T1 construct: Flag-PRMT5; made in house; host or cells: Spodoptera frugiperda (SF9), baculovirus
T1 sequence (O14744 with tags, fused parts or gaps): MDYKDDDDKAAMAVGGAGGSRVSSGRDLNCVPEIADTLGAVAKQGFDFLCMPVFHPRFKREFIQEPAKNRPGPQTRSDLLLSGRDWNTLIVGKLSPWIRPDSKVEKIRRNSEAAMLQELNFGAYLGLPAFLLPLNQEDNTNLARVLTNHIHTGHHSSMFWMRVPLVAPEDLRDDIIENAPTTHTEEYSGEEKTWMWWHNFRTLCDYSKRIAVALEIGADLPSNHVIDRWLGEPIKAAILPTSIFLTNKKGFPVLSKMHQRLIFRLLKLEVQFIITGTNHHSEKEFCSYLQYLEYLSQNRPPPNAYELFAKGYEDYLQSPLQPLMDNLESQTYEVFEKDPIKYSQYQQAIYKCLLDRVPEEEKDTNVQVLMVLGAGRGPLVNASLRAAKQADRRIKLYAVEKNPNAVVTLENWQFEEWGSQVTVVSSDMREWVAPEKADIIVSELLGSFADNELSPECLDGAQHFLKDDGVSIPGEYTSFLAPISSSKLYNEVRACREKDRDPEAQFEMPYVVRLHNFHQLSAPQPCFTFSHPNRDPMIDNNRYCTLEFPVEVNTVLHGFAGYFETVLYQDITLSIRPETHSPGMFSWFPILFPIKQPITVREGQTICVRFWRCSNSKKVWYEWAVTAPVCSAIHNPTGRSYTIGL
T1 sequence (Q9BQA1 with tags, fused parts or gaps partner limits assumed): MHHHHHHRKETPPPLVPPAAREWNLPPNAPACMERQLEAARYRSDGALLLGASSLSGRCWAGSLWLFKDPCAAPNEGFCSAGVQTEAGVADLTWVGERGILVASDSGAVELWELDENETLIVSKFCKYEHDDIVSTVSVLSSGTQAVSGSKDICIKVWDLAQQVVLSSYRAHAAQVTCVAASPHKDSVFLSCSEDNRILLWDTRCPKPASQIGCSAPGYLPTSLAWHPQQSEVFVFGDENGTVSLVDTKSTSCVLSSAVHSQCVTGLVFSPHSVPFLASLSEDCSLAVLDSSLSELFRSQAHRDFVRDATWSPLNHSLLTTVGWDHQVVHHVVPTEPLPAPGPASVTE
Method in brief: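 Sf9-expressed Flag-PRMT5/6His-MEP50 preincubated with compound 30 min at 25 °C, then methylation of biotinylated H4 1-15 peptide started with ³H-SAM in 20 mM Bicine pH 7.6, 1 mM TCEP, 0.005% BSG, 0.002% Tween20.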

[2] = test system: Z-138 cells; experiment: Z-138 Proliferation Assay (Cell Titer Glo, 5 days); type: cell-based; conditions: Homo sapiens, 120 h
Excerpt: Z-138 Proliferation Assay
Z-138 suspension cells were purchased from ATCC (American Type Culture Collection, Manassas, Va.). RPMI/Glutamax medium, penicillin-streptomycin, heat inactivated fetal bovine serum were purchased from Life Technologies, Grand Island, N.Y., USA. V-bottom polypropylene 384-well plates were purchased from Greiner Bio-One, Monroe, N.C., USA. Cell culture 384-well white opaque plates were purchased from Perkin Elmer, Waltham, Mass., USA. Cell-Titer Glo® was purchased from Promega Corporation, Madison, Wis., USA. SpectraMax M5 plate reader was purchased from Molecular Devices LLC, Sunnyvale, Calif., USA.
Z-138 suspension cells were maintained in growth medium (RPMI 1640 supplemented with 10% v/v heat inactivated fetal bovine serum and cultured at 37° C. under 5% CO2. Under assay conditions, cells were incubated in assay medium (RPMI 1640 supplemented with 10% v/v heat inactivated fetal bovine serum and 100 units/mL penicillin-streptomycin) at 37° C. under 5% CO2.
For the assessment of the effect of compounds on the proliferation of the Z-138 cell line, exponentially growing cells were plated in 384-well white opaque plates at a density of 10,000 cells/ml in a final volume of 50 μl of assay medium. A compound source plate was prepared by performing triplicate nine-point 3-fold serial dilutions in DMSO, beginning at 10 mM (final top concentration of compound in the assay was 20 μM and the DMSO was 0.2%). A 100 nL aliquot from the compound stock plate was added to its respective well in the cell plate. […] After addition of compounds, assay plates were incubated for 5 days at 37° C., 5% CO2, relative humidity >90%.
Cell viability was measured by quantitation of ATP present in the cell cultures, adding 35 μl of Cell Titer Glo® reagent to the cell plates. Luminescence was read in the SpectraMax M5 microplate reader. The concentration of compound inhibiting cell viability by 50% was determined using a 4-parametric fit of the normalized dose response curves.

[3] = test system: symmetric di-methyl arginine in Z-138 cells; experiment: Z-138 Methylation Assay (In Cell Western for symmetric di-methyl arginine and DNA content); type: cell-based; conditions: Homo sapiens, read-out: ICW EC50
Excerpt: Z-138 suspension cells were purchased from ATCC (American Type Culture Collection, Manassas, Va.). RPMI/Glutamax medium, penicillin-streptomycin, heat inactivated fetal bovine serum, and D-PBS were purchased from Life Technologies, Grand Island, N.Y., USA. Odyssey blocking buffer, 800CW goat anti-rabbit IgG (H+L) antibody, and Licor Odyssey infrared scanner were purchased from Licor Biosciences, Lincoln, Nebr., USA. Symmetric di-methyl arginine antibody was purchased from EMD Millipore, Billerica, Mass., USA. 16% Paraformaldehyde was purchased from Electron Microscopy Sciences, Hatfield, Pa., USA.
Z-138 suspension cells were maintained in growth medium (RPMI 1640 supplemented with 10% v/v heat inactivated fetal bovine serum and 100 units/mL penicillin-streptomycin) and cultured at 37° C. under 5% CO2.
Cell Treatment, in Cell Western (ICW) for Detection of Symmetric Di-Methyl Arginine and DNA Content.
Z-138 cells were seeded in assay medium at a concentration of 50,000 cells per mL to a 384-well cell culture plate with 50 μL per well. Compound (100 nL) from 384 well source plates was added directly to 384 well cell plate. Plates were incubated at 37° C., 5% CO2 for 96 hours. After four days of incubation, 40 μL of cells from incubated plates were added to poly-D-lysine coated 384 well culture plates (BD Biosciences 356697). Plates were incubated at room temperature for 30 minutes then incubated at 37° C., 5% CO2 for 5 hours. After the incubation, 40 μL per well of 8% paraformaldehyde in PBS (16% paraformaldahyde was diluted to 8% in PBS) was added to each plate and incubated for 30 minutes. Plates were transferred to a Biotek 405 plate washer and washed 5 times with 100 μL per well of wash buffer (1×PBS with 0.1% Triton X-100 (v/v)). Next 30 μL per well of Odyssey blocking buffer were added to each plate and incubated 1 hour at room temperature. Blocking buffer was removed and 20 μL per well of primary antibody was added (symmetric di-methyl arginine diluted 1:100 in Odyssey buffer with 0.1% Tween 20 (v/v)) and plates were incubated overnight (16 hours) at 4° C. Plates were washed 5 times with 100 μL per well of wash buffer. Next 20 μL per well of secondary antibody was added (1:200 800CW goat anti-rabbit IgG (H+L) antibody, 1:1000 DRAQ5 (Biostatus limited) in Odyssey buffer with 0.1% Tween 20 (v/v)) and incubated for 1 hour at room temperature. The plates were washed 5 times with 100 μL per well wash buffer then 1 time with 100 μL per well of water. Plates were allowed to dry at room temperature then imaged on the Licor Odyssey machine which measures integrated intensity at 700 nm and 800 nm wavelengths. Both 700 and 800 channels were scanned.
First, the ratio for each well was determined by:
Each plate included fourteen control wells of DMSO only treatment (minimum inhibition) as well as fourteen control wells for maximum inhibition treated with 3 μM of a reference compound (Background wells). The average of the ratio values for each control type was calculated and used to determine the percent inhibition for each test well in the plate. Reference compound was serially diluted three-fold in DMSO for a total of nine test concentrations, beginning at 3 μM. Percent inhibition was determined and IC50 curves were generated using triplicate wells per concentration of compound.

pIC50 [1] | pEC50 [3] | Compound | pEC50 [2]
6.00 to 7.00 | – | O=C(NC[C@H](O)CN1Cc2ccccc2C1)c1ccnc(NC2CCNC2)c1 (stereo partly shown) [Compound 1-11] | < 4.70
6.00 to 7.00 | 6.00 to 7.00 | CC(=O)N1CC(Nc2cc(C(=O)NCC(C)(O)CN3CCc4ccccc4C3)ncn2)C1 (stereo not shown) [Compound 6-9] | < 5.30
6.00 to 7.00 | 6.00 to 7.00 | O=C(NC[C@H](O)CN1Cc2ccccc2C1)c1cncc(NC2CCN(CC(F)(F)F)CC2)c1 [Compound 6-11] | 4.30 to 5.00
6.00 to 7.00 | 5.00 to 6.00 | CCOC(=O)c1ccc(NC(=O)CC2NC(N3CCN(c4ccccc4)CC3)=NC2=O)cc1 (stereo not shown) [Compound 20-14] | < 4.70
6.00 to 7.00 | 6.00 to 7.00 | CN(C)c1cccc2c(S(=O)(=O)NC3CC(=O)N(c4ccccc4)C3)cccc12 (stereo not shown) [Compound 1-4] | 5.00 to 6.00
> 7.00 | > 7.00 | CN(C)c1cccc2c(S(=O)(=O)NC3CC(=O)N(c4ccccc4N)C3)cccc12 (stereo not shown) [Compound 7-4] | 5.00 to 6.00
> 7.00 | > 7.00 | O=C(NC[C@H](O)CN1CCc2ccccc2C1)c1cc(NC2CCN(CC(F)(F)F)CC2)ncn1 [Compound 3-9] | 6.00 to 7.00
> 7.00 | 6.00 to 7.00 | CN(C)c1cccc2c(S(=O)(=O)NCCC(N)Cc3ccccc3)cccc12 (stereo not shown) [Compound 2-7, N-(3-amino-4-phenylbutyl)-5-(dimethylamino)naphthalene-1-sulfonamide] | 5.00 to 6.00
> 7.00 | 6.00 to 7.00 | CC(=O)N1CC(Nc2cc(C(=O)NC[C@H](O)CN3Cc4ccccc4C3)ncn2)C1 [Compound 5-11] | 5.00 to 6.00
> 7.00 | > 7.00 | CC1CC(Nc2cccc(C(=O)NC[C@H](O)CN3CCc4ccccc4C3)c2)CC(C)O1 (stereo partly shown) [Compound 2-9] | 6.00 to 7.00
6.00 to 7.00 | 5.00 to 6.00 | CN(C)c1cccc2c(S(=O)(=O)NC3CC(=O)N(c4ccccc4Cl)C3)cccc12 (stereo not shown) [Compound 8-4] | 4.30 to 5.00
> 7.00 | > 7.00 | CN(C)c1cccc2c(S(=O)(=O)N[C@H]3CC(=O)N(c4ccccc4)C3)cccc12 [Compound 3-4, (S)-5-(dimethylamino)-N-(5-oxo-1-phenylpyrrolidin-3-yl)naphthalene-1-sulfonamide] | 5.00 to 6.00
> 7.00 | 6.00 to 7.00 | CN1CCC(NC2=NN(C)CC(C(=O)NC[C@H](O)CN3CCc4ccccc4C3)C2)C1 (stereo partly shown) [1-12] | < 5.30
6.00 to 7.00 | 6.00 to 7.00 | O=C(NC[C@H](O)CN1Cc2ccccc2C1)c1cncc(NC2CCN(CC(F)(F)F)C2)c1 (stereo partly shown) [Compound 9-11] | < 4.70
6.00 to 7.00 | – | CCOc1c(C)cc(S(=O)(=O)NCC2CCN(Cc3c(-c4ccccc4)[nH]c4ccccc34)CC2)cc1C [Compound 11-3] | < 4.70
6.00 to 7.00 | 6.00 to 7.00 | Cc1ccccc1N1CC(NS(=O)(=O)c2cccc3c(N(C)C)cccc23)CC1=O (stereo not shown) [Compound 4-4] | 4.30 to 5.00
6.00 to 7.00 | – | O=S(=O)(NCC1CCN(Cc2ccco2)CC1)c1ccc(Oc2ccccc2)cc1 [Compound 8-3] | < 4.70

pIC50 [1] | pEC50 [3] | Compound | pEC50 [2]
6.00 to 7.00 | – | CN(C)c1cccc2c(S(=O)(=O)NC3CCN(Cc4ccco4)CC3)cccc12 [Compound 13-3] | < 4.70
5.00 to 6.00 | < 4.70 | CC(=O)c1ccc(NC(=O)CC2NC(N3CCN(Cc4ccccc4)CC3)=NC2=O)cc1 (stereo not shown) [Compound 3-14] | < 4.70
> 7.00 | 6.00 to 7.00 | CN(C)c1cccc2c(S(=O)(=O)NC[C@@H](N)Cc3ccccc3)cccc12 [Compound 5-7, (S)—N-(2-amino-3-phenylpropyl)-5-(dimethylamino)naphthalene-1-sulfonamide] | 5.00 to 6.00
> 7.00 | 5.00 to 6.00 | Nc1ncnc2c1ncn2[C@@H]1O[C@H](CSCC[C@@H](N)CO)[C@@H](O)[C@H]1O [Compound 92-1, (2S, 3S, 4R, 5R)-2-((((R)-3-amino-4-hydroxybutyl)thio)methyl)-5-(6-amino-9H-purin-9-yl)tetrahydrofuran-3,4-diol] | 4.30 to 5.00
6.00 to 7.00 | – | CCOc1c(C)cc(S(=O)(=O)NCC2CCN(Cc3ccccc3Br)CC2)cc1C [Compound 4-3] | < 4.70
> 7.00 | > 7.00 | CN1CCC(Nc2ccnc(C(=O)NC[C@H](O)CN3CCc4ccccc4C3)c2)CC1 [Compound 5-9] | < 5.30
6.00 to 7.00 | 5.00 to 6.00 | CN(C)c1cccc2c(S(=O)(=O)NC3CC(=O)N(c4cccc(F)c4)C3)cccc12 (stereo not shown) [Compound 6-4] | –
6.00 to 7.00 | < 4.70 | O=C(CC1NC(N2CCc3ccccc3C2)=NC1=O)Nc1ccc(Oc2ccccc2)cc1 (stereo not shown) [Compound 12-14] | < 4.70
6.00 to 7.00 | – | CC(=O)N1CCC(Nc2cc(C(=O)NC[C@H](O)CNCc3ccccc3)ccn2)CC1 [Compound 1-8, (R)-2-((1-acetylpiperidin-4-yl)amino)-N-(3-(benzylamino)-2-hydroxypropyl)isonicotinamide] | < 5.30
> 7.00 | – | CCOc1c(C)cc(S(=O)(=O)NCC2CCN(Cc3c(SC(C)C)nc4sccn34)CC2)cc1C [Compound 9-3] | < 4.70
6.00 to 7.00 | 6.00 to 7.00 | CN(C)c1cccc2c(S(=O)(=O)NC[C@H](N)Cc3ccccc3)cccc12 [Compound 4-7] | –
6.00 to 7.00 | – | CCOc1c(C)cc(S(=O)(=O)NCC2CCN(Cc3cccc4c3OCO4)CC2)cc1C [Compound 5-3] | < 4.70
6.00 to 7.00 | – | CCOc1c(C)cc(S(=O)(=O)NCC2CCN(Cc3ccccc3-c3ccccc3)CC2)cc1C [Compound 7-3] | < 4.70
6.00 to 7.00 | 4.30 to 5.00 | O=S(=O)(NCC1CCN(Cc2ccco2)CC1)c1cccc2c(Cl)cccc12 [Compound 12-3, 5-chloro-N-((1-(furan-2-ylmethyl)piperidin-4-yl)methyl)naphthalene-1-sulfonamide] | –
6.00 to 7.00 | – | CCOc1c(C)cc(S(=O)(=O)NCC2CCN(Cc3ccc4ccccc4c3)CC2)cc1C [Compound 10-3] | < 4.70
6.00 to 7.00 | – | CCOc1c(C)cc(S(=O)(=O)NCC2CCN(Cc3ccc4ncccc4c3)CC2)cc1C [Compound 6-3] | < 4.70
